Experimental data: publication PMC8330100, “Similarities and differences in the localization, trafficking, and function of P-glycoprotein in MDR1-EGFP-transduced rat versus human brain capillary endothelial cell lines” (Fluids and Barriers of the CNS, 2021)

Legend:
[1] = test system: Pgp in primary rBCEC monolayers; assay: Concentration equilibrium transport assay (CETA), primary rBCEC monolayers; type: in vitro ADME, rat; settings: Rho123 2 µM; primary rBCECs
Method: For these experiments, a concentration equilibrium transport assay (CETA) was used, which is more sensitive to identify Pgp substrates than conventional bidirectional (concentration gradient) transport assays. In the CETA, the drug is added to both (apical and basolateral) sides of the monolayer, so that the initial drug concentration is the same in both compartments, thereby minimizing the effect of passive diffusion across the cell monolayer.
Additionally, vectorial drug transport across RBE4-MDR1-EGFP, hCMEC/D3-MDR1-EGFP, LLC-MDR1, and primary rBCEC monolayers was studied using 2 µM Rho123 as a fluorescent Pgp substrate essentially following the same protocol as described for [^3H]dLop. Transport was measured using a FLUOstar OPTIMA fluorescence reader (ex.: 485 nm, em.: 520 nm; BMG Labtech), analyzing samples from basolateral and apical compartments collected at the various time points.

Pgp in RBE4-WT cells = assay: Rhodamine 123 uptake/accumulation assay, RBE4-WT cells; type: cell-based, rat
Method: The functionality of Pgp in RBE4-WT, RBE4-MDR1-EGFP, hCMEC/D3-WT, hCMEC/D3-MDR1-EGFP cells, and primary rBCECs was analyzed by measuring the uptake of the fluorescent Pgp substrate Rho123 (Sigma-Aldrich). Cells were grown on 6-well plates and cultured for seven days in the presence or absence of doxycycline (1 µg/mL, Biochrom). […] Afterward, Rho123 (5 µM, dissolved in ethanol) was added and cells were incubated for another two hours. Rho123 transport was terminated by washing the cells twice with ice-cold PBS. Intracellular Rho123 concentration was determined by cell lysis in standard lysis buffer (25 mM Tris, 50 mM NaCl, 0.5% (w/v) sodium deoxycholate, 0.5% (w/v) Triton X-100) and measurement of fluorescence intensity with the FLUOstar OPTIMA (ex.: 485 nm, em.: 520 nm; BMG Labtech). Protein concentrations were determined using a BCA assay kit (Thermo Fisher Scientific). Rho123 uptake was obtained for each condition in triplicates and calculated as absolute fluorescence per mg protein. Additionally, Pgp functionality was expressed as multidrug resistance activity factor (MAF) as described by Huber et al.. This factor describes Pgp efflux activity based on differences in intracellular Rho123 accumulation in cells after Pgp inhibition compared to cells with active Pgp-mediated efflux. Thus, higher MAF values correlate with increased Pgp activity. For better comparison, differences in Rho123 accumulation are normalized to intracellular Rho123 levels in inhibitor-treated cells. MAF values for Pgp were calculated according to Huber et al. 2012 utilizing the following equation: MAF (%) = 100 · (MFITQ − MFI0)/(MFITQ) where MFITQ and MFI0 represent the mean fluorescence intensity of intracellular Rho123 in tariquidar (TQ)-treated and non-treated cells, respectively.

Compound: COC(=O)c1ccccc1-c1c2ccc(=N)cc-2oc2cc(N)ccc12 [Rho123, rhodamine 123]
- vectorial transport in CETA (apical vs basolateral concentrations) [1]: significantly higher in the apical vs. basolateral chambers
- intracellular Rho123 accumulation (Pgp in RBE4-WT cells; Rho123 5 µM, 2 h, without tariquidar): 86,513 ± 2021 absolute fluorescence per mg p
- multidrug resistance activity factor (MAF) from intracellular Rho123 accumulation (Pgp in RBE4-WT cells; with vs without tariquidar 0.5 µM): 37.5% ± 4.2
